Test results reported in ChEMBL document CHEMBL3758161, “Synthesis and evaluation of antibacterial and antitumor activities of new galactopyranosylated amino alcohols” (Eur J Med Chem, 2016).
≈ marks a conversion by molar mass, not a printed value.

Tests used:
[1] = Lipophilicity, log P of the compound; assay type: physicochemical; settings: octanol/water
Staphylococcus aureus [2] = assay: Antibacterial activity against gram-positive Staphylococcus aureus ATCC 3591 at 5 mg/ml incubated overnight by agar well diffusion method; assay type: functional; settings: read-out: DIZ
[3] = system: Staphylococcus epidermidis; assay: Antibacterial activity against gram-positive Staphylococcus epidermidis ATCC 12228 at 5 mg/ml incubated overnight by agar well diffusion method; assay type: functional; settings: read-out: DIZ
Escherichia coli [4] = assay: Bactericidal activity against gram-negative Escherichia coli ATCC 11229 after 24 hrs by broth dilution method; assay type: functional; settings: ATCC 11229, 24 h
Pseudomonas aeruginosa [5] = assay: Bactericidal activity against gram-negative Pseudomonas aeruginosa ATCC 2785 after 24 hrs by broth dilution method; assay type: functional; settings: ATCC 2785, 24 h
Staphylococcus aureus [6] = assay: Bactericidal activity against gram-positive Staphylococcus aureus ATCC 3591 after 24 hrs by broth dilution method; assay type: functional; settings: ATCC 3591, 24 h
[7] = system: Staphylococcus epidermidis; assay: Bactericidal activity against gram-positive Staphylococcus epidermidis ATCC 12228 after 24 hrs by broth dilution method; assay type: functional; settings: ATCC 12228, 24 h
[8] = system: Mycobacterium tuberculosis; assay: microbe, parasite or virus in culture; settings: H37Rv
Description: Antibacterial activity against Mycobacterium tuberculosis H37Rv

[9] = Cytotoxicity against human GM07492A cells assessed as cell growth inhibition after 24 hrs by XTT assay; assay type: cell-based
HeLa = assay: Cytotoxicity against human HeLa cells assessed as cell growth inhibition after 24 hrs by XTT assay; assay type: functional, cell-based
M059J = assay: Cytotoxicity against human M059J cells assessed as cell growth inhibition after 24 hrs by XTT assay; assay type: functional, cell-based
Escherichia coli [10] = assay: Antibacterial activity against gram-negative Escherichia coli ATCC 11229 at 5 mg/ml incubated overnight by agar well diffusion method; assay type: functional; settings: read-out: DIZ
MCF7 [11] = assay: Selectivity index, ratio of IC50 for human GM07492A cells to IC50 for human MCF7 cells; assay type: functional
MCF7 [12] = assay: cells; settings: Homo sapiens, MCF7, 24 h
Description: Cytotoxicity against human MCF7 cells assessed as cell growth inhibition after 24 hrs by XTT assay

Pseudomonas aeruginosa [13] = assay: Antibacterial activity against gram-negative Pseudomonas aeruginosa ATCC 2785 at 5 mg/ml incubated overnight by agar well diffusion method; assay type: functional; settings: read-out: DIZ

Row | SMILES | logP [1] | zone of inhibition at 5000 µg/mL (Staphylococcus aureus [2]) | zone of inhibition at 5000 µg/mL [3] | MBC (Escherichia coli [4]) | MBC (Pseudomonas aeruginosa [5]) | MBC (Staphylococcus aureus [6]) | MBC [7] | MIC [8] | IC50 [9] | IC50 (HeLa) | IC50 (M059J) | zone of inhibition at 5000 µg/mL (Escherichia coli [10]) | Ratio IC50 (MCF7 [11]) | IC50 (MCF7 [12]) | zone of inhibition at 5000 µg/mL (Pseudomonas aeruginosa [13])
1 | CCCCCCCCCCN(CCO)CC(O)COC[C@H]1O[C@@H]2OC(C)(C)O[C@@H]2[C@H]2OC(C)(C)O[C@H]21 (mixture of isomers) | 3.39 | 20 mm | 20 mm | > 988 µM | 988 µM | 123 µM | 61 µM | 96 µM |  |  |  |  |  |  | 
2 | CCCCCCCCCCC(O)CNCCO (stereo not drawn) | 3.62 |  |  |  |  |  |  | 102 µM (≈ 25 µg/mL) |  |  |  |  |  |  | 
3 | CCCCCCCCCCCCC(O)CN(CCO)CC(O)COC[C@H]1O[C@@H]2OC(C)(C)O[C@@H]2[C@H]2OC(C)(C)O[C@H]21 (mixture of isomers) |  | 20 mm | 18 mm | > 868 µM | > 868 µM | > 868 µM | 13 µM |  |  |  |  |  |  |  | 
4 | CO[C@H]1/C=C/O[C@@]2(C)Oc3c(C)c(O)c4c(O)c(c(/C=N/N5CCN(C)CC5)c(O)c4c3C2=O)NC(=O)/C(C)=C\C=C\[C@H](C)[C@H](O)[C@@H](C)[C@@H](O)[C@@H](C)[C@H](OC(C)=O)[C@@H]1C [RIFAMPIN] |  |  |  |  |  |  |  | 1 µM (≈ 0.823 µg/mL) |  |  |  |  |  |  | 
5 | CCCCCCCCCCCCNCCN | 4.69 |  |  |  |  |  |  | 27 µM (≈ 6.17 µg/mL) |  |  |  |  |  |  | 
6 | COc1cccc2c1C(=O)c1c(O)c3c(c(O)c1C2=O)C[C@@](O)(C(=O)CO)C[C@@H]3O[C@H]1C[C@H](N)[C@H](O)[C@H](C)O1 [DOXORUBICIN] |  |  |  |  |  |  |  |  | 0.5 µM | 21.9 µM | 6.9 µM |  |  |  | 
7 | CCCCCCCCN(CCO)CC(O)COC[C@H]1O[C@@H]2OC(C)(C)O[C@@H]2[C@H]2OC(C)(C)O[C@H]21 (mixture of isomers) | 2.55 |  |  |  |  |  |  | > 204 µM |  |  |  |  |  |  | 
8 | CCCCCCCCCCNCCNCC(O)COC[C@H]1O[C@@H]2OC(C)(C)O[C@@H]2[C@H]2OC(C)(C)O[C@H]21 (mixture of isomers) | 3.15 | 20 mm | 20 mm | > 990 µM | > 990 µM | 8 µM | 8 µM | 24 µM | 63.3 µM | 40.2 µM | 39.2 µM | 16 mm | 2.3 | 28 µM | 
9 | CCCCCCCCCCCCNCCCN | 5.06 |  |  |  |  |  |  | 103 µM (≈ 25 µg/mL) |  |  |  |  |  |  | 
10 | CCCCCCCCC(O)CNCCO (stereo not drawn) | 2.14 |  |  |  |  |  |  | 460 µM (≈ 100 µg/mL) |  |  |  |  |  |  | 
11 | CCCCCCCCC(O)CN(CCO)CC(O)COC[C@H]1O[C@@H]2OC(C)(C)O[C@@H]2[C@H]2OC(C)(C)O[C@H]21 (mixture of isomers) | 2.43 | 16 mm | 22 mm | > 959 µM | > 959 µM | 240 µM | 120 µM | > 187 µM |  |  |  |  |  |  | 18 mm
12 | CCCCCCCCCCCCCCNCCNCC(O)COC[C@H]1O[C@@H]2OC(C)(C)O[C@@H]2[C@H]2OC(C)(C)O[C@H]21 (mixture of isomers) | 3.56 | 22 mm | 20 mm | 445 µM | > 894 µM | 14 µM | 14 µM | 87 µM | 24.9 µM | 41.5 µM | 39.2 µM | 10 mm | 0.6 | 39.3 µM | 20 mm
13 | CCCCCCCCCCCCCCNCCCNCC(O)COC[C@H]1O[C@@H]2OC(C)(C)O[C@@H]2[C@H]2OC(C)(C)O[C@H]21 (mixture of isomers) | 4.12 |  |  |  |  |  |  | 42 µM | 80.3 µM | 147 µM | 195 µM |  | 0.4 | 194 µM | 
14 | CCCCCCCCCCCCN(CCO)C[C@H](O)COC[C@H]1O[C@@H]2OC(C)(C)O[C@@H]2[C@H]2OC(C)(C)O[C@H]21 | 4.22 |  |  |  |  |  |  | 15 µM (≈ 8.19 µg/mL) | 162 µM | 162 µM |  |  | 0.8 | 182 µM | 
15 | CCCCCCCCNCCO | 2.55 |  |  |  |  |  |  | 577 µM (≈ 100 µg/mL) |  |  |  |  |  |  | 
16 | CCCCCCCCCCNCCO | 3.09 |  |  |  |  |  |  | 248 µM (≈ 49.9 µg/mL) |  |  |  |  |  |  | 
17 | CCCCCCCCCCCCNCCO | 3.93 |  |  |  |  |  |  | 27 µM (≈ 6.19 µg/mL) |  |  |  |  |  |  | 

Row | SMILES | logP [1] | zone of inhibition at 5000 µg/mL (Staphylococcus aureus [2]) | zone of inhibition at 5000 µg/mL [3] | MBC (Escherichia coli [4]) | MBC (Pseudomonas aeruginosa [5]) | MBC (Staphylococcus aureus [6]) | MBC [7] | MIC [8] | IC50 [9] | IC50 (HeLa) | IC50 (M059J) | zone of inhibition at 5000 µg/mL (Escherichia coli [10]) | Ratio IC50 (MCF7 [11]) | IC50 (MCF7 [12]) | zone of inhibition at 5000 µg/mL (Pseudomonas aeruginosa [13])
18 | CCCCCCCCCCC(O)CN(CCO)CC(O)COC[C@H]1O[C@@H]2OC(C)(C)O[C@@H]2[C@H]2OC(C)(C)O[C@H]21 (mixture of isomers) | 3.37 |  | 11 mm | > 911 µM | > 911 µM | > 911 µM | 28 µM | 175 µM |  |  |  |  |  |  | 20 mm
19 | CCCCCCCCCCCCN(CCO)C[C@@H](O)COC[C@H]1O[C@@H]2OC(C)(C)O[C@@H]2[C@H]2OC(C)(C)O[C@H]21 | 4.22 |  |  |  |  |  |  | 29 µM (≈ 15.8 µg/mL) | 260 µM | 105 µM | 97.8 µM |  | 3.4 | 75.7 µM | 
20 | CCCCCCCCCCCCN(CCO)CC(O)COC[C@H]1O[C@@H]2OC(C)(C)O[C@@H]2[C@H]2OC(C)(C)O[C@H]21 (mixture of isomers) | 4.22 |  | 20 mm | > 938 µM | > 938 µM | > 938 µM | 4 µM | 23 µM | 282 µM | 125 µM | 110 µM |  | 2.7 | 104 µM | 20 mm
21 | CCCCCCCCCCCCCCN(CCO)CC(O)COC[C@H]1O[C@@H]2OC(C)(C)O[C@@H]2[C@H]2OC(C)(C)O[C@H]21 (mixture of isomers) | 5.06 | 18 mm | 30 mm | > 892 µM | 892 µM | 111 µM | 3 µM | 22 µM | 83 µM | 87.7 µM | 12.8 µM |  | 2.7 | 30.8 µM | 
22 | CCCCCCCCCCCCNCCNCC(O)COC[C@H]1O[C@@H]2OC(C)(C)O[C@@H]2[C@H]2OC(C)(C)O[C@H]21 (mixture of isomers) | 3.99 | 30 mm | 20 mm | 235 µM | > 940 µM | 15 µM | 15 µM | 91 µM | 7.3 µM |  | 10 µM | 10 mm | 0.6 | 11.9 µM | 20 mm
23 | CCCCCCCCCCCCCCNCCCN | 4.88 |  |  |  |  |  |  | 46 µM (≈ 12.4 µg/mL) |  |  |  |  |  |  | 
24 | CCCCCCCCCCNCCN | 2.71 |  |  |  |  |  |  | 249 µM (≈ 49.9 µg/mL) |  |  |  |  |  |  | 
25 | NC(=O)N/N=C/c1ccc([N+](=O)[O-])o1 [NITROFURAZONE] |  | 31 mm | 25 mm |  |  |  |  |  |  |  |  | 35 mm |  |  | 15 mm
26 | CC[C@@]1(O)C(=O)OCc2c1cc1n(c2=O)Cc2cc3ccccc3nc2-1 [CAMPTOTHECIN] |  |  |  |  |  |  |  |  | 3.2 µM | 19.8 µM | 5.5 µM |  | 0.5 | 6 µM | 
27 | CCCCCCCCCCCCNCCCNCC(O)COC[C@H]1O[C@@H]2OC(C)(C)O[C@@H]2[C@H]2OC(C)(C)O[C@H]21 (mixture of isomers) | 4.09 | 20 mm | 19 mm | > 916 µM | > 916 µM | > 916 µM | > 916 µM | 22 µM | 23.5 µM | 34.5 µM | 34.8 µM |  | 0.8 | 27.8 µM | 
28 | CCCCCCCCCCCCCCNCCN | 4.5 |  |  |  |  |  |  | 97 µM (≈ 24.9 µg/mL) |  |  |  |  |  |  | 
29 | CC[C@@H](CO)NCCN[C@@H](CC)CO [ETHAMBUTOL] |  |  |  |  |  |  |  | 15 µM (≈ 3.06 µg/mL) |  |  |  |  |  |  | 
30 | CCCCCCCCCCNCCCNCC(O)COC[C@H]1O[C@@H]2OC(C)(C)O[C@@H]2[C@H]2OC(C)(C)O[C@H]21 (mixture of isomers) | 3.26 | 12 mm |  | 241 µM | > 965 µM | 60 µM | 15 µM | 23 µM | 29.4 µM | 57 µM | 53.8 µM | 28 mm | 0.9 | 32.2 µM | 
31 | COc1cc([C@@H]2c3cc4c(cc3[C@@H](O[C@@H]3O[C@@H]5CO[C@@H](C)O[C@H]5[C@H](O)[C@H]3O)[C@H]3COC(=O)[C@H]23)OCO4)cc(OC)c1O [ETOPOSIDE] |  |  |  |  |  |  |  |  | 1.2 µM | 226 µM | 58.9 µM |  | 0 | 82.6 µM | 
32 | CCCCCCCCCCCCCCNCCO [MYRALACT] | 4.76 |  |  |  |  |  |  | 49 µM (≈ 12.6 µg/mL) |  |  |  |  |  |  | 
33 | CCCCCCCCCCCCC(O)CNCCO (stereo not drawn) | 4.69 |  |  |  |  |  |  | 46 µM (≈ 12.6 µg/mL) |  |  |  |  |  |  | 
34 | CCCCCCCCCCNCCCN | 2.82 |  |  |  |  |  |  | 116 µM (≈ 24.9 µg/mL) |  |  |  |  |  |  | 
